Tested on: CD8beta(+)CD8alpha(+) T cells
Experiment: Long-term culturing of T cells obtained by feeder-free differentiation induction, trypan blue count
Format: cell-based, human
Conditions: 1 μM, FIG. 14(B)
Method: The possibility of long-term culturing of T-iPS-T cells using berbamine was evaluated. First, T cells were induced from T-iPS cells without using a feeder. For the maintenance of iPS cells, StemFit AK02N medium (Ajinomo) was used for feeder-free iPS cells. The iPS cells were detached from the culture surface coated with iMatrix-511 using a dissociation agent [1× TrypLE Select (Thermo Fisher Scientific) was diluted to 1/2 with PBS, and a 0.5 mol/L EDTA solution (pH 8, Nacalai Tesque) was added thereto to give a final concentration of 0.5× TrypLE Select and 0.75 mM EDTA], and subcultured in a culture medium obtained by adding 10 μM Y-27632 to StemFit AK02N (37° C., 5% CO2). On the following day, the culture medium was replaced with Stemfit AK02N. This operation was repeated once a week to maintain the iPS cells.
Hematopoietic progenitor cells (HPCs) were produced by inducing the differentiation of iPS cells by an embryoid body formation method. The feeder-free iPS cells were detached with 0.5× TrypLE Select, and 0.75 mM EDTA, and then seeded at 2 to 3×10^5 cells/well in a 6-well plate (CORNING) subjected to an ultra-low adhesion treatment. By using Stemfit AK02N medium supplemented with 10 μM Y-27632 (Nacalai Tesque) and 10 μM CHIR99021 (Tocris Bioscience), the cells were cultured under low oxygen conditions (5% 02) (Day 0). […]

COc1cc2c3cc1Oc1c(OC)c(OC)cc4c1[C@@H](Cc1ccc(O)c(c1)Oc1ccc(cc1)C[C@@H]3N(C)CC2)N(C)CC4 [berbamine]
period for which the cells could be cultured (restimulated on day 14, 28, 42, MilliQ water control could not be cultured after day 42): 56 days
proliferation of the cells in long-term culturing (vs MilliQ water): enhancement of the proliferation of T-iPS-T cells

Source: patent US12168781B2, “Production method for T cells or NK cells, medium for culturing T cells or NK cells, method for culturing T cells or NK cells, method for maintaining undifferentiated state of undifferentiated T cells, and growth-accelerating agent for T cells or NK cells” (KIRIN HOLDINGS KABUSHIKI KAISHA, priority 2018, dated 2024)
